Laboratory results: patent EP2970215B1, “PYRROLIDINE DERIVATIVES, PHARMACEUTICAL COMPOSITIONS CONTAINING THEM, AND THEIR USE IN THERAPY” (AbbVie Deutschland GmbH & Co. KG, priority 2013, dated 2014)
pKi: −log10 of the molar value.

target: T1, human GlyT1c transporter (Homo sapiens, UniProt P48067); experiment: Radioligand binding assay using recombinant CHO cell membranes expressing human GlyT1; conditions: radioligand binding to human GlyT1c transporter-expressing membranes
T1 construct: expressed in transfected cells; host or cells: CHO cells (recombinant; line hGlyT1c_5_CHO is named for the uptake assay)
T1 sequence (P48067 1-706): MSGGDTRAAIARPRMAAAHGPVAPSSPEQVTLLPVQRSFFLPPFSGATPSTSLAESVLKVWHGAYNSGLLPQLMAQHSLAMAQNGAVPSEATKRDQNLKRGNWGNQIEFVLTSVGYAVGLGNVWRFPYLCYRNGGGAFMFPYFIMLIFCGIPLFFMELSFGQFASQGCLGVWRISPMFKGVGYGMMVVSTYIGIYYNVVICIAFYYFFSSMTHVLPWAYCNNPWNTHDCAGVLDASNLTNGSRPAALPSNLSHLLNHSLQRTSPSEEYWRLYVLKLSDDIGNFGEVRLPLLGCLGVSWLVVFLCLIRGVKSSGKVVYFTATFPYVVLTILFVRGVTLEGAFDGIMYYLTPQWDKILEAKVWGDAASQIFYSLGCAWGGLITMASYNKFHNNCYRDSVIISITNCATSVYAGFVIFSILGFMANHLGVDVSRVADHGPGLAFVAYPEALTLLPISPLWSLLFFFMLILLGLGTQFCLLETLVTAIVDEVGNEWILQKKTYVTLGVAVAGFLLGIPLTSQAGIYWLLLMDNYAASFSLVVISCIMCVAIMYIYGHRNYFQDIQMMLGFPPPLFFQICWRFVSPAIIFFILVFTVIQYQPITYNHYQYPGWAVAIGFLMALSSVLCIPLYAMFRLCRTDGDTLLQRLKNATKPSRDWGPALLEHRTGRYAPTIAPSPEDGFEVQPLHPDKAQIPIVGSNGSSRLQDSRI
Source text: 2. Radioligand binding assays using recombinant CHO cell membranes expressing human GlyT1: […]

Row | Compound | pKi
1 | Cn1cnc(S(=O)(=O)N2C[C@@H](Nc3cccc(F)c3)[C@H](c3ccccc3F)C2)c1 (relative stereo) [Example 199, trans-4-(2-fluorophenyl)-N-(3-fluorophenyl)-1-[(1-methyl-1H-imidazol-4-yl)sulfonyl]pyrrolidin-3-amine] | ≥ 6.00
2 | Cn1cnc(S(=O)(=O)N2C[C@@H](Nc3ccc(F)cc3)[C@H](c3ccccc3F)C2)c1 (relative stereo) [Example 200, trans-4-(2-fluorophenyl)-N-(4-fluorophenyl)-1-[(1-methyl-1H-imidazol-4-yl)sulfonyl]pyrrolidin-3-amine] | ≥ 6.00
3 | Cn1cnc(S(=O)(=O)N2C[C@@H](Nc3ccc(Cl)cc3)[C@H](c3ccccc3F)C2)c1 (relative stereo) [Example 202, trans-N-(4-chlorophenyl)-4-(2-fluorophenyl)-1-[(1-methyl-1H-imidazol-4-yl)sulfonyl]pyrrolidin-3-amine] | ≥ 6.00
4 | Cn1cnc(S(=O)(=O)N2C[C@@H](Nc3cccc(C(F)(F)F)n3)[C@H](c3ccccc3F)C2)c1 (relative stereo) [Example 203, N-{trans-4-(2-fluorophenyl)-1-[(1-methyl-1H-imidazol-4-yl)sulfonyl]pyrrolidin-3-yl}-6-(trifluoromethyl)pyridin-2-amine] | ≥ 5.00
5 | Cn1cnc(S(=O)(=O)N2C[C@@H](CO)[C@H](c3ccc(F)cc3)C2)c1 (relative stereo) [Example 206, {Trans-4-(4-fluorophenyl)-1-[(1-methyl-1H-imidazol-4-yl)sulfonyl]pyrrolidin-3-yl}methanol] | ≥ 5.00
6 | Cn1cnc(S(=O)(=O)N2C[C@@H](Nc3ccccn3)[C@H](c3ccccc3)C2)c1 (relative stereo) [Example 207, N-{trans-1-[(1-methyl-1H-imidazol-4-yl)sulfonyl]-4-phenylpyrrolidin-3-yl}pyridin-2-amine] | ≥ 5.00
7 | Cn1cnc(S(=O)(=O)N2C[C@@H](Nc3cccnc3)[C@H](c3ccccc3)C2)c1 (relative stereo) [Example 208, N-{trans-1-[(1-methyl-1H-imidazol-4-yl)sulfonyl]-4-phenylpyrrolidin-3-yl}pyridin-3-amine] | ≥ 5.00
8 | Cn1cnc(S(=O)(=O)N2C[C@@H](Nc3ccncc3)[C@H](c3ccccc3)C2)c1 (relative stereo) [Example 209, N-{trans-1-[(1-methyl-1H-imidazol-4-yl)sulfonyl]-4-phenylpyrrolidin-3-yl}pyridin-4-amine] | ≥ 5.00
9 | Cn1cnc(S(=O)(=O)N2C[C@@H](Nc3ccc(F)c(Cl)c3)[C@H](c3ccccc3)C2)c1 (relative stereo) [Example 215, trans-N-(3-chloro-4-fluorophenyl)-1-[(1-methyl-1H-imidazol-4-yl)sulfonyl]-4-phenylpyrrolidin-3-amine] | ≥ 7.00
10 | Cn1cnc(S(=O)(=O)N2C[C@@H](Nc3ccc(F)c(F)c3)[C@H](c3ccccc3)C2)c1 (relative stereo) [Example 216, trans-N-(3,4-difluorophenyl)-1-[(1-methyl-1H-imidazol-4-yl)sulfonyl]-4-phenylpyrrolidin-3-amine] | ≥ 6.00
11 | Cn1cnc(S(=O)(=O)N2C[C@@H](Nc3ccc(Cl)c(Cl)c3)[C@H](c3ccccc3)C2)c1 (relative stereo) [Example 218, trans-N-(3,4-dichlorophenyl)-1-[(1-methyl-1H-imidazol-4-yl)sulfonyl]-4-phenylpyrrolidin-3-amine] | ≥ 6.00
12 | Cn1cnc(S(=O)(=O)N2C[C@@H](Nc3cc(F)c(F)c(Cl)c3)[C@H](c3ccccc3)C2)c1 (relative stereo) [Example 219, trans-N-(3-chloro-4,5-difluorophenyl)-1-[(1-methyl-1H-imidazol-4-yl)sulfonyl]-4-phenylpyrrolidin-3-amine] | ≥ 5.00
13 | CC(C)c1cccc(N[C@@H]2CN(S(=O)(=O)c3cn(C)cn3)C[C@H]2c2ccccc2)c1 (relative stereo) [Example 220, trans-1-[(1-methyl-1H-imidazol-4-yl)sulfonyl]-4-phenyl-N-[3-(propan-2-yl)phenyl]pyrrolidin-3-amine] | ≥ 8.00
14 | Cn1cnc(S(=O)(=O)N2C[C@@H](Nc3cccc(C(C)(C)C)c3)[C@H](c3ccccc3)C2)c1 (relative stereo) [Example 221, trans-N-(3-tert-butylphenyl)-1-[(1-methyl-1H-imidazol-4-yl)sulfonyl] -4-phenylpyrrolidin-3-amine] | ≥ 6.00
15 | Cn1cnc(S(=O)(=O)N2C[C@@H](Nc3cc(F)cc(Cl)c3)[C@H](c3ccccc3)C2)c1 (relative stereo) [Example 225, trans-N-(3-chloro-5-fluorophenyl)-1-[(1-methyl-1H-imidazol-4-yl)sulfonyl]-4-phenylpyrrolidin-3-amine] | ≥ 5.00
16 | Cn1cnc(S(=O)(=O)N2C[C@@H](Nc3cccc(OC(F)(F)F)c3)[C@H](c3ccccc3)C2)c1 (relative stereo) [Example 226, trans-1-[(1-methyl-1H-imidazol-4-yl)sulfonyl]-4-phenyl-N-[3-(trifluoromethoxy)phenyl]pyrrolidin-3-amine] | ≥ 8.00
17 | Cn1cnc(S(=O)(=O)N2C[C@@H](Nc3ccc4cccnc4c3)[C@H](c3ccccc3)C2)c1 (relative stereo) [Example 228, N-{trans-1-[(1-methyl-1H-imidazol-4-yl)sulfonyl]-4-phenylpyrrolidin-3-yl}quinolin-7-amine] | ≥ 5.00
18 | Cn1cnc(S(=O)(=O)N2C[C@@H](Nc3ccc4ncccc4c3)[C@H](c3ccccc3)C2)c1 (relative stereo) [Example 229, N-{trans-1-[(1-methyl-1H-imidazol-4-yl)sulfonyl]-4-phenylpyrrolidin-3-yl}quinolin-6-amine] | ≥ 5.00

The remaining lines, values ahead:

Row | pKi | Compound
19 | ≥ 7.00 | Cn1cnc(S(=O)(=O)N2C[C@@H](Nc3ccnc(C(F)(F)F)c3)[C@H](c3ccccc3F)C2)c1 (relative stereo) [Example 204, N-{trans-4-(2-fluorophenyl)-1-[(1-methyl-1H-imidazol-4-yl)sulfonyl]pyrrolidin-3-yl}-2-(trifluoromethyl)pyridin-4-amine]
20 | ≥ 5.00 | Cn1cnc(S(=O)(=O)N2C[C@@H](Nc3cccc(C(F)(F)F)n3)[C@H](c3ccccc3)C2)c1 (relative stereo) [Example 210, N-{trans-1-[(1-methyl-1H-imidazol-4-yl)sulfonyl]-4-phenylpyrrolidin-3-yl}-6-(trifluoromethyl)pyridin-2-amine]
21 | ≥ 6.00 | Cn1cnc(S(=O)(=O)N2C[C@@H](Nc3ccnc(C(F)(F)F)c3)[C@H](c3ccccc3)C2)c1 (relative stereo) [Example 211, N-{trans-1-[(1-methyl-1H-imidazol-4-yl)sulfonyl]-4-phenylpyrrolidin-3-yl}-2-(trifluoromethyl)pyridin-4-amine]
22 | ≥ 7.00 | Cn1cnc(S(=O)(=O)N2C[C@@H](Nc3cc(C(F)(F)F)ccn3)[C@H](c3ccccc3)C2)c1 (relative stereo) [Example 212, N-{trans-1-[(1-methyl-1H-imidazol-4-yl)sulfonyl]-4-phenylpyrrolidin-3-yl}-4-(trifluoromethyl)pyridin-2-amine]
23 | ≥ 6.00 | Cn1cnc(S(=O)(=O)N2C[C@@H](Nc3cncc(C(F)(F)F)c3)[C@H](c3ccccc3)C2)c1 (relative stereo) [Example 213, N-{trans-1-[(1-methyl-1H-imidazol-4-yl)sulfonyl]-4-phenylpyrrolidin-3-yl} -5 - (trifluoromethyl)pyridin-3-amine]
24 | ≥ 6.00 | Cn1cnc(S(=O)(=O)N2C[C@@H](Nc3ccc(Cl)c(C(F)(F)F)c3)[C@H](c3ccccc3)C2)c1 (relative stereo) [Example 217, trans-N-[4-chloro-3-(trifluoromethyl)phenyl]-1-[(1-methyl-1H-imidazol-4-yl)sulfonyl]-4-phenylpyrrolidin-3-amine]
25 | ≥ 6.00 | Cn1cnc(S(=O)(=O)N2C[C@@H](Nc3cccc(C(F)(F)F)c3F)[C@H](c3ccccc3)C2)c1 (relative stereo) [Example 222, trans-N-[2-fluoro-3-(trifluoromethyl)phenyl]-1-[(1-methyl-1H-imidazol-4-yl)sulfonyl]-4-phenylpyrrolidin-3-amine]
26 | ≥ 7.00 | Cn1cnc(S(=O)(=O)N2C[C@@H](Nc3cc(F)cc(C(F)(F)F)c3)[C@H](c3ccccc3)C2)c1 (relative stereo) [Example 223, trans-N-[3-fluoro-5-(trifluoromethyl)phenyl]-1-[(1-methyl-1H-imidazol-4-yl)sulfonyl]-4-phenylpyrrolidin-3-amine]
27 | ≥ 6.00 | Cn1cnc(S(=O)(=O)N2C[C@@H](Nc3cc(C(F)(F)F)ccc3F)[C@H](c3ccccc3)C2)c1 (relative stereo) [Example 224, trans-N-[2-fluoro-5-(trifluoromethyl)phenyl]-1-[(1-methyl-1H-imidazol-4-yl)sulfonyl]-4-phenylpyrrolidin-3-amine]
28 | ≥ 5.00 | Cn1cnc(S(=O)(=O)N2C[C@@H](Nc3nccc(C(F)(F)F)n3)[C@H](c3ccccc3)C2)c1 (relative stereo) [Example 227, N-{trans-1-[(1-methyl-1H-imidazol-4-yl)sulfonyl]-4-phenylpyrrolidin-3-yl}-4-(trifluoromethyl)pyrimidin-2-amine]
